These results are taken from paper PMC5047049, “Characterization of a functional C3A liver spheroid model” (Toxicology Research, 2016).

Entries after “also recorded” stand apart in the source; their conditions may differ. Where two headings read alike, the source gives them in different places.

Assay [1] deals with MRP2 and Pgp transporters. The assay is described as follows: Analysis of transporter function with CMFDA substrate in C3A spheroids. It counts as cell-based. As to conditions: 30 min. The method, then:
(§1) Spheroids and monolayers were incubated with 5 μM 5-chloromethylfluorescein diacetate (CMFDA-Life Technologies) with or without 25 μM MK571 (MRP inhibitor) and 12.5 μM PSC833 (Pgp inhibitor) in EMEM for 30 min at 37 °C. CMFDA is membrane permeable until it enters cell and is converted to glutathione-methylfluorescein (GSMF), a cell impermeable substrate for MRP and Pgp.[40] Cells and spheroids were washed in PBS and prepared for immunofluorescence as described above.

Assay [2] deals with MRP2 and Pgp transporters. The assay is described as follows: Analysis of transporter function with CMFDA substrate in 2D monolayer C3A cells. It counts as cell-based. Conditions: 5 μM CMFDA, 30 min. The method, then:
as §1

The test system of a further assay is HepG2 monolayer cultures. The arrangement: method as in PMID 9862754. Conditions: cited from earlier work.
In a further assay the test system is C3A spheroids. The assay can be described thus: Toxicological analysis: Cell Titer-Glo cell viability in C3A spheroids, 4 days with repeat dosing. It counts as cell-based. Here is the method: Spheroids were created using the liquid overlay technique as previously described.[38] Briefly, 100 μl of sterile 1.5% Agarose (high gelling temperature-Sigma Aldrich) in EMEM was added per well to flat-bottomed 96-well cell culture plates to form a low-adherence surface. Additionally Ultra Low Adherence plates (ULA-Corning) were used as a comparison. C3A cells were seeded at 500, 750, 1000, 1500, 2000 or 2500 cells per well in 100 μl media and left for 72 hours to form spheroids. Media was renewed twice weekly and spheroids were cultured for up to 32 days. Images of spheroids in culture were taken by phase-contrast microscopy through 4× objective and maximum spheroid diameter measured. Spheroids were treated at day 3 of culture with hepatotoxic compounds acetaminophen, fialuridine, diclofenac and trovafloxacin diluted in 0.5% DMSO in EMEM for 4 days with repeat dosing on day 2. Monolayer C3A cells were treated with compounds for 24 hours. Cell viability was analysed using Cell Titer-Glo assay (Promega) according to the manufacturer's instructions and plotted as a percentage of untreated control.
In general terms: Cellular ATP, detected with luciferase, serves as a proxy for viable cell number.

A further assay has as its system C3A 2D monolayer. The assay can be described thus: Toxicological analysis: Cell Titer-Glo cell viability in C3A 2D monolayer, 24 hours. The assay is classed as cell-based. The method, then:
C3A cells were maintained in EMEM (LGC Standards) supplemented with 10% FBS and 1% penicillin–streptomycin under standard cell culture conditions. For 2D monolayer experiments C3A cells were seeded and left to adhere for 24 hours and confirmed to be 100% confluent before analyses. Spheroids were treated at day 3 of culture with hepatotoxic compounds acetaminophen, fialuridine, diclofenac and trovafloxacin diluted in 0.5% DMSO in EMEM for 4 days with repeat dosing on day 2. Monolayer C3A cells were treated with compounds for 24 hours. Cell viability was analysed using Cell Titer-Glo assay (Promega) according to the manufacturer's instructions and plotted as a percentage of untreated control.

The mark [3] stands for this setting: Homo sapiens, spheroids from 1000 C3A cells, treated at day 3 for 4 days with repeat dosing on day 2, read-out: IC50 value in C3A spheroids.
[4] abbreviates: Homo sapiens, monolayer C3A cells treated for 24 hours, read-out: IC50 value in C3A 2D monolayer (converted).

With `CC(=O)Oc1ccc2c(c1)Oc1cc(OC(C)=O)ccc1C21OC(=O)c2cc(CCl)ccc21` [CMFDA, 5-chloromethylfluorescein diacetate], the “CMFDA localisation in spheroids” value in assay [1] (5 μM CMFDA, C3A spheroids) is “accumulation and co-localisation of the compound within secondary canalicular-like structures; also recorded: accumulation of CMFDA in the bile canalicular structures”. Further, the “CMFDA localisation in spheroids with MRP and Pgp transporters blocked” value in assay [1] (with 25 μM MK571 (MRP inhibitor) and 12.5 μM PSC833 (Pgp inhibitor)) is on record as “retained in the cell cytoplasm”. Besides, in assay [2], the “CMFDA localisation in 2D monolayer” value is recorded as “retained CMFDA (green) within the cell cytoplasm”.
Usually IC50 stands for the midpoint of a concentration-inhibition curve. Consider `O=C(O)Cc1ccccc1Nc1c(Cl)cccc1Cl` [Diclofenac], for which the IC50 is roughly 763 µM in the assay on HepG2 monolayer cultures and 295 µM in the assay with C3A spheroids (setting [3]). The “IC50 value in C3A 2D monolayer” value was “Non toxic” in the assay with C3A 2D monolayer (monolayer C3A cells treated for 24 hours) and “did not have a toxic response at the concentrations used” with C3A 2D monolayer (monolayer C3A cells treated for 24 hours, listed as diclofenac).
Regarding `O=c1[nH]c(=O)n([C@@H]2O[C@H](CO)[C@@H](O)[C@@H]2F)cc1I` [Fialuridine], the figures for the half-inhibitory concentration (IC50) in the assay on C3A spheroids (setting [3]) and in the assay with C3A 2D monolayer (setting [4]) were 206 µM and 380 µM, respectively.
Regarding `CC(=O)Nc1ccc(O)cc1` [Paracetamol], the half-inhibitory concentration (IC50) is 7200 µM in the assay with C3A spheroids (96 h, C3A spheroids, 4 days repeat dosing, read-out: IC50 in spheroids); 7210 µM in the assay with C3A spheroids (setting [3]); 33800 µM in the assay on C3A 2D monolayer (C3A monolayer, 24 hours, read-out: IC50 in monolayer culture); 33800 µM in the assay with C3A 2D monolayer (setting [4]).
`N[C@@H]1[C@H]2CN(c3nc4c(cc3F)c(=O)c(C(=O)O)cn4-c3ccc(F)cc3F)C[C@@H]12` [Trovafloxacin]: the IC50 in the assay with C3A spheroids (setting [3]) was 65 µM; in the assay with C3A 2D monolayer (setting [4]) it was 440 µM.
